Experiment [1] is described as follows: NIH-3T3 fibroblast cytotoxicity, dose response, cytotoxicity control, cell-based, fluorescence, Alamar Blue, secondary assay (AID 2327).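 Also: NIH-3T3 mouse fibroblasts cultured with fluconazole at 8 µg/mL.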 Format: functional. On the technique in general: Resazurin is reduced to fluorescent resorufin, in cell work by metabolically active cells.
The subject of experiment [2] is Streptococcus sp. 'group A'. The experiment in a line: Streptococcus pyogenes SK(-)GAS viability under kanamycin – luminescence, BacTiterGlo, confirmation, counter-screen for streptokinase expression inhibitor project, dose response (AID 1900). Format: functional, organism-based. Background: The purpose of a counterscreen is to sort out artefacts and off-target activity.

Experiment [3] in a line: fluconazole-exposed Candida albicans growth modulators – fluorescence, retest, confirmation (AID 2467). Format: functional, cell-based.
The subject of the next experiment is Streptococcus. Description: GAS UMAA2166 growth inhibition – luminescence, BacTiterGlo, counter-screen for streptokinase expression inhibitor project, dose response (AID 1915).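 Also: potency for reduction of bacterial viability or growth.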 Format: functional, organism-based.
Experiment [4] in a line: HGIII-sPLA2 enzyme inhibition potency – biochemical, QFRET, IC50, dose response (AID 743457).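 Also: green fluorescence rise as the enzyme cleaves BODIPY PC-A2 in liposomes.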
For the next experiment, the system named is P388/ADR. Description: cells. Format: functional. Conditions: Mus musculus.
For another experiment, the system named is SN12K1. Description: cells. It is filed as functional. The settings on record: Homo sapiens.
In another experiment the test system is P388. Description: cells. Conditions: Mus musculus. It is filed as functional.
A further experiment deals with Vero. The experiment in a line: viability of Vero cells under compound – cytotoxicity control for flavivirus capping enzyme inhibitors (AID 588742). Conditions: Chlorocebus sabaeus. Format: functional.
Another experiment has as its system INS1. Description: INS-1E survival protection against cytokine death – cell-based, luminescence, retest, dose response (AID 449756).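 Also: cell death triggered by IL-1 beta plus TNF-alpha plus IFN-gamma mixture; protective hits raise ATP signal compared with cytokine alone wells.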 Format: functional. The settings on record: Rattus norvegicus.
Experiment [5] is described as follows: A549 cell cytotoxicity, dose response, cytotoxicity control, plate reader, cherry-pick, antagonist series (AID 743412). Format: functional, cell-based.
The target of experiment [6] is T1, Corticotropin-releasing factor receptor 2/Corticotropin-releasing factor-binding protein (Homo sapiens, UniProt P24387+Q13324).
T1 sequence (Q13324 whole entry): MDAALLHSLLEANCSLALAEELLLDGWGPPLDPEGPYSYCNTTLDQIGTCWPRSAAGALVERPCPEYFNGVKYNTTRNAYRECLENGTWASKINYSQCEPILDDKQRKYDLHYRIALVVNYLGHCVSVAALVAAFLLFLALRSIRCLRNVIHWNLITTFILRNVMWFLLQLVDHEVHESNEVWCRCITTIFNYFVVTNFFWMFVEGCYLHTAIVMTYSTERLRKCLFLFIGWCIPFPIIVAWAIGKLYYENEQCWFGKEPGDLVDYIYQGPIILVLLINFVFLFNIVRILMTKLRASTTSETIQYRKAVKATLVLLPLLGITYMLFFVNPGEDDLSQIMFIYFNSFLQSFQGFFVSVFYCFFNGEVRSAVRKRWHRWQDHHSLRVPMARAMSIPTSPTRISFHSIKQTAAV
T1 sequence (P24387 whole entry): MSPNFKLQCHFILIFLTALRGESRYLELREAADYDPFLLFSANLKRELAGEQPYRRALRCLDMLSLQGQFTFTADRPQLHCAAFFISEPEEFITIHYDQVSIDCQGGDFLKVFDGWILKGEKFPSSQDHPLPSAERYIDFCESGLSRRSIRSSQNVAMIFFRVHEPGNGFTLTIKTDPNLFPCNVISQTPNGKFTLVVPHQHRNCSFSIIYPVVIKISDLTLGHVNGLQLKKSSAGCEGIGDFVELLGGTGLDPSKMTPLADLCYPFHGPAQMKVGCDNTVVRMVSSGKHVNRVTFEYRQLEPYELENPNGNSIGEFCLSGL
Description: Dose Response confirmation of uHTS hits for small molecule antagonists of the CRF-binding protein and CRF-R2 receptor complex. The settings on record: read-out: IC50_Mean. Format: functional.

Experiment [7] has as its target T1, Corticotropin-releasing factor receptor 2/Corticotropin-releasing factor-binding protein. The experiment in a line: activators of CRF receptor 2 with binding protein – uHTS hits, confirmation (AID 602473). Format: functional. Conditions: read-out: EC50_Mean.
A short description of experiment [8]: luciferase reporter signal suppression in cells – H4 neuroglioma cells, luminescence, dose response (AID 1990). Format: functional, cell-based.
A short description of experiment [9]: Luminescence Cell-Based Dose Response HTS to Identify Inhibitors of 5'UTR Stem-Loop Driven Prion Protein mRNA Translation in H4 Neuroglioblastoma Cells. [Related pubchem assays: 1827 (Project Summary), 1813 (Primary HTS)]. It is filed as functional.
Experiment [10] is described as follows: alpha-synuclein stem-loop luciferase translation blockers – H4 neuroglioma cells, luminescence, confirmation (AID 1988). Format: functional, cell-based.
Experiment [11] is described as follows: reduction of Shn3 3'UTR-driven luciferase in osteoblasts – cell-based, Clone20 osteoblasts, firefly luciferase, cherry-picked, dose response (AID 624132).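 Also: firefly luciferase luminescence from reporter carrying the Shn3 3'UTR in osteoblasts.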 Format: functional.
The nature of experiment [12]: loss of viability in HepG2 cells – cell-based, CellTiter-Glo, cherry-picked, cytotoxicity control for Shn3 inhibitor project, dose response (AID 624134). Format: functional. On the technique in general: ATP-based viability assays read luminescence as a measure of living cells.
Experiment [13] can be described thus: non-specific 3'UTR reporter inhibition in Clone20-Shn3RL – cell-based, Renilla luciferase, cherry-picked, counter-screen for Shn3 inhibitor project, dose response (AID 624133). Format: functional.
Experiment [14] is described as follows: Fluorescence-based cell-based high throughput dose response assay for inhibitors of the interaction of nucleotide-binding oligomerization domain containing 2 (NOD2) and the receptor-interacting serine-threonine kinase 2 (RIPK2). It is filed as functional. The settings on record: Homo sapiens.
The target in the next experiment is Beta Lactamase (Pseudomonas aeruginosa, UniProt Q932Y6). Description: BLA reporter interference, concentration series – BLA reporter cells, FRET fluorescence, artefact control for NOD2-RIPK2 interaction inhibitor project, dose response (AID 651552). Format: functional, cell-based.
Sequence of Beta Lactamase (Q932Y6 whole entry): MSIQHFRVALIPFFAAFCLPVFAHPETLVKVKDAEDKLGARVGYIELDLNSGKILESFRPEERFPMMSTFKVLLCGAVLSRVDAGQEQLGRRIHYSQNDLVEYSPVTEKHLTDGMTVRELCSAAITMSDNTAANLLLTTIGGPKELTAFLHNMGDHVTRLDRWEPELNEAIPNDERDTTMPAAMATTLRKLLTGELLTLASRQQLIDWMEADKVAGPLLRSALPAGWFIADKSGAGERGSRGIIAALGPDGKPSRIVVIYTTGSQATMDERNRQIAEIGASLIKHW
Another experiment deals with Genome polyprotein (dengue virus type 2, UniProt P29990). Description: flavivirus cap methylation enzyme inhibition – biochemical, confirmation dose response, primary screen (AID 588689). It is filed as functional.
Sequence of Genome polyprotein (P29990 2492-3391 limits assumed): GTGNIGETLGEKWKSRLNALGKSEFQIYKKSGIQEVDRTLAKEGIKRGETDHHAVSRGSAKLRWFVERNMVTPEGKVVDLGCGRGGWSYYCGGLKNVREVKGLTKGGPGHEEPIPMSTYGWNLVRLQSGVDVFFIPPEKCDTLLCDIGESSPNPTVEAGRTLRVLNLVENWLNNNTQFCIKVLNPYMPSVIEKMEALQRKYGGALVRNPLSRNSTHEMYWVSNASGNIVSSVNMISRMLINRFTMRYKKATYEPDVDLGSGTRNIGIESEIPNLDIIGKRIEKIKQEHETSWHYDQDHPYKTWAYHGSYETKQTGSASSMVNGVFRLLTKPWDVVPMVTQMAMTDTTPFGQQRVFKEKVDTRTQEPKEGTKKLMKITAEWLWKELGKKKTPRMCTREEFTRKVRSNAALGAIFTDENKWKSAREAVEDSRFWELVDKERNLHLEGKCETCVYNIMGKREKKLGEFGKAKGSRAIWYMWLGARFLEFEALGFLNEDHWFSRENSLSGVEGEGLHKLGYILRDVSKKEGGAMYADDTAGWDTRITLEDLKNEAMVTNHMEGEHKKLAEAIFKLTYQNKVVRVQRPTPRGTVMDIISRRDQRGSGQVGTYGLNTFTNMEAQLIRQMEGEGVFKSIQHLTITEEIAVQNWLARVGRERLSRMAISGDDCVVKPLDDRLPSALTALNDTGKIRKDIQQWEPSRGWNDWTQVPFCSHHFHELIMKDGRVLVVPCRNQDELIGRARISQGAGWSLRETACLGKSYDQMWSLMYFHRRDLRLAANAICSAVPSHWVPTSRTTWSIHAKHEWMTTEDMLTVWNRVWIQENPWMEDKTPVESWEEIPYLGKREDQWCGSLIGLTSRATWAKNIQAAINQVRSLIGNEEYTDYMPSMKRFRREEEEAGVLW
Experiment [15] has as its target T2, Polyadenylate-binding protein 1 (Homo sapiens, UniProt P11940). The experiment in a line: MLLE binding blockers, Cy5 peptide tracer – biochemical, fluorescence polarization, Cy5-PAM2 peptide, secondary, miRNA deadenylation inhibitor project, dose response (AID 602260). Format: functional. Conditions: read-out: IC50_Mean.
The target in experiment [16] is T2, Polyadenylate-binding protein 1. Description: MLLE domain peptide-binding blockers, IC50 – biochemical, fluorescence polarization, FITC-PAM2 peptide, dose response (AID 602259). Format: functional. Conditions: read-out: IC50_Mean.
Experiment [17] is described as follows: cells. It is filed as functional, cell-based.
Experiment [18] can be described thus: cells. Format: functional, cell-based. This is another data set of the same source.
The target in the next experiment is Albumin (Bos taurus, UniProt P02769). Description: Counterscreen for inhibitors of T-cell receptor (TCR)-CD3 interaction: Fluorescence-based biochemical high throughput dose response assay to identify inhibitors of T-cell receptor (TCR)-CD3 interaction using a TAMRA-labeled BSA probe. Format: functional.
Sequence of Albumin (P02769 whole entry): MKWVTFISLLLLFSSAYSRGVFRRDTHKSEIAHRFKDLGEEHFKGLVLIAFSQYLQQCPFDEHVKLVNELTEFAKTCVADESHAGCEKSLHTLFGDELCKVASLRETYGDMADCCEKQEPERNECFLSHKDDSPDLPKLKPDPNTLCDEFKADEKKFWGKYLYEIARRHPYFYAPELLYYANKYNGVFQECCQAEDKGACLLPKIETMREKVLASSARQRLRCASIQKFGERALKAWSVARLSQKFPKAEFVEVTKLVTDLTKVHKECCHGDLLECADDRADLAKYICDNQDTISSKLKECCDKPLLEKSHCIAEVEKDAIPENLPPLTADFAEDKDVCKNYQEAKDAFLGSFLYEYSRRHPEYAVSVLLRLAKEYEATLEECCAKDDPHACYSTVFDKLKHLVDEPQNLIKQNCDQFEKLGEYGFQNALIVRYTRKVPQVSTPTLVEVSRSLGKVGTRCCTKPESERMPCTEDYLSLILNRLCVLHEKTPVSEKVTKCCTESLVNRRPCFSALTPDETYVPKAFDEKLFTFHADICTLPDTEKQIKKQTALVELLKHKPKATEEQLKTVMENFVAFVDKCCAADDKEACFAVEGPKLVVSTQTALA
The target in a further experiment is Paired box protein Pax-8 (Homo sapiens, UniProt Q06710). Description: PAX8 transcriptional activity inhibition in RMG-I – RMG-I cells, luciferase, cherry-pick, dose response (AID 687027).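 Also: luciferase reporter driven by Pax8 target thyroperoxidase promoter measured by SteadyGlo luminescence.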 It is filed as functional, cell-based.
Sequence of Paired box protein Pax-8 (Q06710 whole entry): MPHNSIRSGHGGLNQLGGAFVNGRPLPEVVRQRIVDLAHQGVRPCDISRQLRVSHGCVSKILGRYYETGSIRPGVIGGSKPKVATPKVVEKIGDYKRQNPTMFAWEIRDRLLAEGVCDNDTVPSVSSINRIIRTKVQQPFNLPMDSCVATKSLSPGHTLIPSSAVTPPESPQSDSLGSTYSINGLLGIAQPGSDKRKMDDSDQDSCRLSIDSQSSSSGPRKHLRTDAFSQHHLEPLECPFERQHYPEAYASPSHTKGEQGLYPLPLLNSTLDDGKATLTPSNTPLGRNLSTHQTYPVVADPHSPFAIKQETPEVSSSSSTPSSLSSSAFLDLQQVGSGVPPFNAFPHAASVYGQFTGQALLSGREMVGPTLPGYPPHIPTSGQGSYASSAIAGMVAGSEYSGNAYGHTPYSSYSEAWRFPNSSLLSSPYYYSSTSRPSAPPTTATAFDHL
Experiment [19] in a line: general cell-killing toxicity readout – plate reader, dry powder samples, cytotoxicity control for PAX8 inhibitor project, dose response (AID 743021). Format: functional, cell-based.

The structures appear in SMILES notation. Active and inactive are the calls of the source.

For orientation: GI50 means the concentration giving 50% growth inhibition. In general, CC50 refers to the concentration that lowers cell viability or growth by half. One may read the AC50 as the concentration at which the activity in the assay is half-maximal.

T2 sequence (P11940 whole entry, the tested form may be a part): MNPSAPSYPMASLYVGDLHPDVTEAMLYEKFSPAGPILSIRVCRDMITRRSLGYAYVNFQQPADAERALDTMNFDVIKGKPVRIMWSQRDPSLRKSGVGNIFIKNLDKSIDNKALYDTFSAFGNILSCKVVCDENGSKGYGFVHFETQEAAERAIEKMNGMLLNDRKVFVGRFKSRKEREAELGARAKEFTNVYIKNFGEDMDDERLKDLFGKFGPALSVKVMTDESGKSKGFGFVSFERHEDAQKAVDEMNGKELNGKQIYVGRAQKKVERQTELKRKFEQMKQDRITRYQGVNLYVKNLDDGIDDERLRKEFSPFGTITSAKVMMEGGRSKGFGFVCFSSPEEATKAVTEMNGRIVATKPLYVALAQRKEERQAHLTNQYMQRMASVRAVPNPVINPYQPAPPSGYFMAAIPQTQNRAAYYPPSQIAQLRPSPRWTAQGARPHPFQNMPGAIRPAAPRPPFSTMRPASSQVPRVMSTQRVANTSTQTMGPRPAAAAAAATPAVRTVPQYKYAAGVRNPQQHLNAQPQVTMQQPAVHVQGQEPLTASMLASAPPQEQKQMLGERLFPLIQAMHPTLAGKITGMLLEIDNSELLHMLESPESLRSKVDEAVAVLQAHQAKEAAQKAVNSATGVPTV

As for `S=C(Nc1ccc(Cl)cc1)c1nc2ccccc2[nH]1`, the EC50 is 19 µM (active) in [1], 1.26 µM (active) in [2], > 38 µM (not active) in [3] and 3.17 µM (active) in the experiment with Streptococcus. In addition, in experiment [4], the IC50 is > 122 µM (inactive).
For `S=P1(N2CCCCC2)Oc2ccc3ccccc3c2-c2c(ccc3ccccc23)O1`, the GI50 in the experiment on P388/ADR was > 100 µM (inactive); with SN12K1 it was > 61.8 µM (inactive); in the experiment with P388, 48.4 µM (inactive).
On to `COc1ccc(OCC(C)(C)O)cc1`, for which the GI50 with P388/ADR is 1.31 µM (inactive); in the experiment on SN12K1, > 100 µM (inactive); in the experiment on P388, 38.2 µM (inactive).
Turning to `COc1ccc(S(=O)(=O)N(C(=O)c2ccco2)c2cc3sc(=O)oc3c3ccccc23)cc1`, in the experiment on Vero, the CC50 is 27.7 µM (active). Also, the AC50 with INS1 was 4.56 µM (active).
In the case of `CC(=O)N1CCc2cc(S(=O)(=O)C(C)CC(=O)NCc3ccco3)ccc21` (configuration not stated), the AC50 in [5] is > 52 µM (inactive).
As for `Cc1ccc(-c2ccc(=O)n(Cc3cc(C)ccc3C)n2)cc1`, the IC50 in experiment [6] is > 47.1 µM (inactive). Besides, the EC50 in experiment [7] was > 53 µM (inactive).
Regarding `Cc1cccc(CS(=O)(=O)c2ncc(Cl)c(C(=O)NCc3ccccc3)n2)c1`, the EC50 was > 120 µM (not active) in experiment [8], 26.1 µM (active) in experiment [9] and 12 µM (active) in [10]. For the same molecule, the AC50 was 2.94 µM (active) in experiment [11], 18.8 µM (active) in experiment [12] and 14 µM (active) in experiment [13]. Further, the IC50 is 2.77 µM (active) in experiment [14] and 12.3 µM (inactive) at Beta Lactamase.
Consider `O=C1C(Cl)=CC(=Nc2ccc(O)cc2)C=C1Cl`, for which the 50% cytotoxic concentration (CC50) in the experiment on Vero is 37.7 µM (active). Also, the IC50 on Genome polyprotein is 7.02 µM (active); in experiment [15], > 66 µM (inactive); in [16], > 66 µM (inactive).
Turning to `Nc1ccc(S(=O)(=O)Nc2ccc(Cl)nn2)cc1` [SULFACHLORPYRIDAZINE], the IC50 in experiment [6] was > 47.1 µM (inactive). The EC50 in experiment [7] is > 53 µM (inactive).
Consider `Cc1cc(Br)cc(/C=N/NC(=O)c2ccc3c(c2)OCO3)c1O`, for which the EC50 in experiment [2] is 1.22 µM (active); in “cells [17]” it was 96.8 µM (active); in the experiment “cells [18]” it was 75.7 µM (active); in the experiment on Streptococcus, 3.25 µM (active). In the experiment on INS1, the half-maximal activity concentration (AC50) was 1.32 µM (active). Also, the figures for the IC50 (on Albumin; in experiment [4]) were > 94.1 µM (inactive) and > 122 µM (inactive), respectively.
With `Cc1nc(-c2ccc(NC(=O)c3ccco3)cc2)cs1`, the AC50 on Paired box protein Pax-8 is 8.26 µM (active); in experiment [19], 17.1 µM (active).
Take `C(=C/c1nc2ccccc2o1)/c1ccc2c(c1)OCO2`: the results for the GI50 in the experiment on P388/ADR, in the experiment with SN12K1 and in the experiment on P388 were 3.99 µM (inactive), 5.62 µM (inactive) and 3.52 µM (inactive), respectively.
For `O=S1(=O)CS(=O)(=O)OCCO1`, in that order: 7.36 µM (inactive), 28.6 µM (inactive) and 10.8 µM (inactive).
In the case of `O=C(Cn1ncc2c3ccccc3nc-2c1O)NCC1CCN(Cc2ccccc2F)CC1`, the IC50 in experiment [6] is > 47.1 µM (inactive). Besides, the EC50 in [7] is > 53 µM (inactive).
As to `Cc1ccc(N2Cc3c(ccc4ccccc34)OP2(=O)Oc2ccc(Cl)c(C)c2)cc1` (configuration not stated), the GI50 with P388/ADR was 7.45 µM (inactive); with SN12K1 it was > 77.8 µM (inactive); with P388, 4.75 µM (inactive).
Turning to `CCCC(=O)Nc1nnc(Sc2ccc(N(C)C)cc2)s1`, in experiment [6], the IC50 was > 47.1 µM (inactive). Further, in experiment [7], the EC50 was > 53 µM (inactive).

The record behind these values is ChEMBL document CHEMBL1201862, “PubChem BioAssay data set” (2004).
